Laboratory results from PMC10860144, “Exploring the Dispersion and Electrostatic Components in Arene–Arene Interactions between Ligands and G4 DNA to Develop G4-Ligands” (Journal of Medicinal Chemistry, 2024).
Values after ≈ are worked out from the molar mass of the structure shown.

Legend:
[1] = system: G4 structure on DNA template (PEPu24T); assay: Taq polymerase stop (primer extension) assay, G4 template; format: biochemical
Description: To challenge all the synthesized compounds (2–11 and 25–29) in a more intricate context, we conducted a Taq polymerase stop assay to evaluate their capacity to impede DNA synthesis through G4 stabilization. In this assay, we compared the progress of the Taq DNA polymerase along two distinct DNA templates: one with a G4 structure (Figure 5) and another serving as a non-G4 control (Figure S21). If an external species (e.g., G4 ligand) binds and stabilizes the G4 structure, the polymerase will be partially halted. The extent of this DNA polymerase stalling is dependent on the ability of the compound to stabilize the G4 on the DNA template. The increased G4 stabilization can be detected as a reduction in the amount of newly synthesized DNA that has reached the end of the DNA template (full-length/end-product). Analysis of these shorter terminated DNA products will give information about the precise location of the DNA polymerase stalling with a single nucleotide resolution. If the ligand imposes little to no stabilization or binding, the G4 is readily resolved by the DNA polymerase, and no difference in the amount of DNA end-product can therefore be expected upon the addition of the compound.
Templates for the primer extension assay were created by annealing 25 nt TET labeled primer (1 μM final concentration) to either PEPu24T or a mutated sequence not forming a G4, PEPu24T mut, (1.25 μM final concentration) in 100 mM KCl by heating to 95 °C for 5 min and slowly cooling to room temperature. […] Compounds were added in the indicated concentration and incubated on ice for 10 min before starting the reaction by adding dNTPs (100 μM final concentration) to the reaction and transferring it to 37 °C. Reactions were stopped after 15 min by addition of 10 μL of formamide loading buffer (0.5% SDS, 25 mM EDTA, 95% v/v formamide and xylene-cyanol). Samples were then loaded on a 12% polyacrylamide gel containing 7 M urea and 25% formamide and imaged using an Amersham Typhoon. The images were quantified using ImageJ 1.53e software, and the percentage of full-length product compared to a sample without compound was calculated.
Templates for the primer extension assay were created by annealing 25nt TET labelled primer (1 µM final concentration) to either PEPu24T or a mutated sequence not forming a G4, PEPu24T mut, (1.25 µM final concentration) in 100 mM KCl by heating to 95 °C for 5 min and slowly cooling to room temperature. The reaction mixture (10 µl) contained 1X Taq Buffer with KCl (10 mM Tris-HCl pH 8.8, 50 mM KCl, detergent), 25 mM MgCl2, […]
[…] Compounds were added in the indicated concentration and incubated on ice for 10 min before starting the reaction by adding dNTPs (100 µM final concentration) to the reaction and transferring it to 37 °C. Reactions were stopped after 15 min by addition of 10 µl of formamide loading buffer (0,5% SDS, 25 mM EDTA, 95% v/v formamide and xylene-cyanol). Samples were then loaded on a 12% polyacrylamide gel containing 7 M urea and 25% formamide and imaged using an Amersham™ Typhoon™.
The images were quantified using ImageJ 1.53e software and the percentage of full-length product compared to a sample without compound was calculated. […]

Solubility at pH 7.4 = format: physicochemical
Experimental: Physicochemical properties
The Physicochemical profiling (LogD, Solubility, Caco-2 cell permeability) was performed as previously
described.8 Cell viability was performed as described below.
Table S2. Pharmacokinetic Properties
Compound Structure logD, Solubility, Rat hepsa Human mics b

[2] = Intrinsic clearance in rat hepatocytes; format: in vitro ADME
Experimental: (§1) All compounds (2–11, 25–29) were screened for their logD and solubility at pH 7.4 and for their intrinsic clearance in rat hepatocytes and human microsomes (Table S2). […] Replacing the basic amine side chain to a methyl substituent in the quinazolines (25–29) still retained good solubility (134 to over 1000 μM) but increased clearance in both rat hepatocytes and human microsomes. The logD was low for compounds with a basic amine side chain (2–11) and increased slightly when the amine was replaced with a methyl (25–29). As expected, additional substituents also affected the logD with the chloro-substituents increasing logD the most.
(§2) a Intrinsic clearance in rat hepatocytes ((μL/min)/10^6 cells).b Intrinsic clearance in human microsomes (μL/min/mg). […]

[3] = Intrinsic clearance in human microsomes; format: in vitro ADME; details: read-out: Human mics: intrinsic clearance in human microsomes
Experimental: as §1, §2

Pu24T c-MYC G4 structure = assay: Kd for binding to the Pu24T c-MYC G4 structure (supplementary CSV); design: species or system human
Experimental: 5′-Cy5 labeled G4 DNAs for this study were purchased from Eurofins Genomics. Stock solutions were prepared in water at 100 μM concentration. The sequences used are listed in Supporting Information Table S1. The G4 DNA sequences were folded in KCl buffer (10 mM phosphate, 100 mM KCl, pH 7.4) by heating at 95 °C for 5 min and then cooling to room temperature. All the experiments were performed in 10 mM phosphate pH 7.4, 100 mM KCl, and 0.05% Tween20. The labeled DNA concentration is held constant at 25 nM, and ligand concentration is varied depending on ligands Kd (16 1:3 dilutions). The samples were loaded into standard MST graded glass capillaries and initial fluorescence intensity of the capillary was measured using Monolith NT.115 (Nano Temper, Germany) with 20% LED power. The change in fluorescence with ligand’s concentrations were plotted in Excel and fitted through nonlinear equation to obtain the binding constants.
The Supporting Information is available free of charge at https://pubs.acs.org/doi/10.1021/acs.jmedchem.3c02127. • Experimental procedures and data; assay data, computational results, and all cell data; NMR (^1H and ^13C) spectra for all compounds (with the exception of a few intermediates); and HPLC UV traces for the final compounds (PDF) • Molecular formula strings and Kd values for binding to the Pu24T c-MYC G4 structure (CSV)

full-length DNA product ([1]; compound 0.24 μM, compared to DMSO control)	solubility (Solubility at pH 7.4)	Rat heps: intrinsic clearance in rat hepatocytes [2]	microsomal CLint [3]	Kd (Pu24T c-MYC G4 structure)	blocking of the Taq DNA polymerase at the G4 structure (in words) ([1]; compound 0.24 μM)	IC50 ([1]; G4 template, DNA 0.048 μM, read-out: concentration reaching 50% inhibition of DNA end-product)	Structure (SMILES)
about 65%	> 1000 µM	8 (μL/min)/106 cells	< 3 µL/min/mg	1400 ± 300 nM	–	–	Cc1cc(NCCCN(C)C)nc(Nc2ncc3ccccc3n2)n1 [Compound 2, N4-(3-(Dimethylamino)propyl)-6-methyl-N2-(quinazolin-2-yl)pyrimidine-2,4-diamine]
–	962 µM (≈ 365 µg/mL)	1 (μL/min)/106 cells	< 3 µL/min/mg	50 ± 4 nM	almost completely blocked	–	Cc1cc(C)c2nc(Nc3nc(C)cc(NCCCN(C)C)n3)nc(C)c2c1 [Compound 5, N4-(3-(Dimethylamino)propyl)-6-methyl-N2-(4,6,8-trimethylquinazolin-2-yl)pyrimidine-2,4-diamine]
–	264 µM (≈ 77.5 µg/mL)	27 (μL/min)/106 cells	140 µL/min/mg	800 ± 100 nM	–	1200 nM	Cc1cc(C)c2nc(Nc3nc(C)cc(C)n3)nc(C)c2c1 [Compound 27, N-(4,6-Dimethylpyrimidin-2-yl)-4,6,8-trimethylquinazolin-2-amine]
